Assay results published in US20030124132A1 (University of Texas, published 2003).

Legend:
F9 sarcoma tumors = assay: Tumor tissue necrosis in F9 sarcoma mouse model; format: in vivo, balb/c nude mice; conditions: endotoxin-free tTF 4 μg; diluent 40-50% spontaneous necrosis
Procedure: 1×10^7 F9 sarcoma cells were injected subcutaneously into the right flank of balb/c nude mice. Subcutanous tumors were measured with a caliper in three perpendicular directions a, b, and c, and volumes calculated according to the formula V=π/6×a'b×c. Treatment was initiated when subcutaneous tumors reached a size of 150 to 300 μl.
Reagents were administered into the lateral tail vein.
Mice were closely observed after treatment for clinical signs of toxicity and clinical status was documented at defined time points. Three days after treatment, mice were sacrificed and tumors were harvested. Paraffin embedded tissues were stained with hematoxilin and eosin (H&E). Tissue sections were analyzed on a light microscope by two independent investigators and histological findings were documented. Tumor sections with necrotic areas were scanned with a GS-700 imaging densitometer (Biorad, Hercules, Calif.) and areas of necrosis were calculated as % of total section area.

immobilized tTF = biological target: T1, immobilized tTF (Homo sapiens, UniProt P13726); assay: Real time binding of tTF to immobilized tTF (surface plasmon resonance); conditions: tTF alone or preincubated with endotoxin or factor VIIa
T1 construct: Recombinant soluble Tissue Factor protein (amino acids 1-219) was extracted from the periplasmic space of transformed E. coli; made in house; host or cells: E. coli (periplasmic secretion, vector pswc7)
T1 sequence (P13726 33-251): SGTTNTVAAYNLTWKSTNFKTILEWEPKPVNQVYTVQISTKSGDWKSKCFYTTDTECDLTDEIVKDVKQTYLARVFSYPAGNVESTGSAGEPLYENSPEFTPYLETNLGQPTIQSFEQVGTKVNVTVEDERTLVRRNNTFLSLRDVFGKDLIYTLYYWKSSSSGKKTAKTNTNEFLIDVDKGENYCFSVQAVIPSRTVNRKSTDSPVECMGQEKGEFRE

C1300 (Muγ) tumors = assay: Coaguligand (B21-2/10H10 + tTF) treatment of C1300 (Muγ) tumors; format: in vivo, BALB/c nu/nu mice; conditions: paraffin sections, 30 minutes to 24 hours after administration
Text: To improve the C1300 (Muγ) tumor model, the C1300 (Muγ) cell line was subcloned into a cell line that can grow without being mixed with its parental cell, C1300, but still express the I-A^d MHC Class II antigen on the endothelial cells of the tumor. […] Vessels in other normal tissues were unstained.
Vessels contained platelet aggregates, packed red cells and fibrin. At this time, tumor-cells were viable, being indistinguishable morphologically from tumor cells in untreated mice. […]
To establish tumors, 10^6 to 1.5×10^7 tumor cells were injected subcutaneously into the right anterior flank of the mice. […] Other mice received equivalent quantities IgG, Fab′ or bispecific antibody alone. […]
Twenty-four hours after being injected with tTF or immunoglobulin-tTF conjugates, the mice were anesthetized with metophane and were exsanguinated by perfusion with heparinized saline. […] Blood vessels having open lumens containing erythrocytes and blood vessels containing thrombi were counted. […]
Other mice received equivalent quantities of bispecific antibody alone. […] Perpendicular tumor diameters were measured at regular intervals and tumor volumes were calculated.

L540 tumors = assay: Anti-tumor activity of anti-VCAM-1·tTF coaguligand in L540 tumors; format: in vivo, SCID mice; conditions: controls
Procedure: The anti-tumor activity of anti-VCAM-1-tTF coaguligand was determined in SCID mice bearing 0.3-0.4 cm^3 L540 tumors. The drug was administered i.v. 3 times at intervals of 4 days.

[1] = system: L540rec human Hodgkin's lymphoma tumors; assay: Tumor tissue necrosis in L540 Hodgkin's lymphoma-bearing mice after tTF and/or endotoxin; format: in vivo, SCID mice
Procedure: For in vivo studies, a metastasizing mouse model for human Hodgkin's lymphoma was used. 1×10^7 L540rec cells were injected subcutaneously into the right flank of SCID mice resulting in a subcutaneous tumor with lymph node metastases in the regional lymph node stations. Subcutanous tumors were measured with a caliper in three perpendicular directions a. b, and c, and volumes calculated according to the formula V=π/6×a×b×c.
(§1) Treatment was initiated when subcutaneous tumors reached a size of 150 to 300 μl. Reagents were administered into the lateral tail vein.
(§2) Mice were closely observed after treatment for clinical signs of toxicity and clinical status was documented at defined time points (5 minutes, 10 minutes, 15 minutes, 30 minutes. 1 hour, 2 hours, 24 hours, 48 hours, 72 hours). Blood samples were taken from the tail vein at 1 hour, 2 hours and 24 hours to measure TNFα blood levels. Three days after treatment, the mice were anesthetized, blood samples were taken from the vena cava for coagulation tests, and an autopsy was performed to document any changes in gross pathology. Tumors, lymph node metastases and the major normal organs (heart, lung, brain, liver, kidney, colon, spleen, pancreas) were harvested and prepared for histological analysis.
(§3) Tissue samples harvested at the time of autopsy were fixed in 3% NBF (normal buffered formalin) and embedded in paraffin wax. Tissue blocs were cut, dewaxed and stained with hematoxilin and eosin (H&E). Tissue sections were analyzed on a light microscope by two independent investigators and histological findings were documented. Tumor sections with necrotic areas were scanned with a GS-700 imaging densitometer (Biorad, Hercules, Calif.) and areas of necrosis were calculated as % of total section area. Statistical Analysis was performed using SPSS software (SPSS Science Software, Erkrath, Germany) applying the Mann-Whitney-U-test for ungrouped data.

[2] = Clinical signs of toxicity and histology of normal organs in treated tumor-bearing mice; format: in vivo, SCID mice; conditions: for Symptoms (clinical signs of toxicity): endotoxin-free tTF alone
Procedure: as §1, §2, §3

L540 tumor blood vessels = assay: Thrombosis of L540 tumor vessels by anti-VCAM-1·tTF coaguligand; format: in vivo, mice; conditions: equivalent quantities
Text: Before coaguligand injection, tumors were viable, having a uniform morphology lacking regions of necrosis. […] Within four hours of coaguligand injection, 40-70% of blood vessels were thrombosed. despite the initial staining of only 20-30% of tumor blood vessels. The thrombosed vessels contained occlusive platelet aggregates, packed erythrocytes and fibrin. In several regions, the blood vessels had ruptured, spilling erythrocytes into the tumor interstitium.

Substance: tTF: extracellular domain of the mature Tissue Factor protein (amino acid 1-219), recombinant; depyrogenated in Example X
- average tumor tissue necrosis (F9 sarcoma tumors): 45%
- binding to immobilized tTF (immobilized tTF): did not bind to or homodimerize with immobilized tTF
- thrombi or abnormalities in normal organs (C1300 (Muγ) tumors): neither thrombi, nor histological or morphological abnormalities were visible
- effect on tumor growth (L540 tumors): did not affect tumor growth
- % tumor necrosis ([1]; Table 2, tTF alone, three days after i.v. treatment): 4%
- tumor tissue necrosis ([1]; endotoxin-free tTF alone, 4 μg or 16 μg i.v., three days after treatment): 0%
- anti-tumor effect ([1]; tTF alone, 4 μg to 16 μg): no anti-tumor effect
- anti-tumor effect ([1]; tTF alone, 100 μg): anti-tumor effects begin to appear
- Symptoms (clinical signs of toxicity) [2]: no clinical signs of toxicity
- Symptoms (clinical signs of toxicity) ([2]; listed as TTF): None
- histology of normal organs (necrosis, thrombosis, abnormalities) ([2]; light microscopy, three days after treatment): No histological abnormalities were seen
- control reagents causing thrombosis (L540 tumor blood vessels): None
